Laboratory results taken from US8470964B2, “Peptides derived from NCAM (FGLs)” (Enkam Pharmaceuticals A/S, priority 2007, dated 2013).
Where “and” joins values, the source holds several entries; their conditions need not be identical. Equal entries are not always repeated. Where no end group is shown, it is not given here.

Legend:
[1] = tested on: (25-35) β-amyloid peptide fragment induced cognitive deficits model in rats; experiment: (25-35) β-amyloid induced cognitive deficits, intranasal administration, SRT; type: in vivo, rat; details: 1.28 mg/kg intranasally daily, 15 doses day 7 to 21; SRT 22 days after β-amyloid injection
Source text: FIG. 9. Effects of intranasal administration of FGLs on the β-amyloid neurotoxicity induced deficit on performance in the Social Recognition Test. Rats received an intranasal administration of FGLs at the stated doses or vehicle daily at days 7 to 21 after i.c.v. administration of the (25-35) β-amyloid (A-β) fragment. 8-10 animals per group. Results are expressed as Means and SEM of Recognition Ratio and analyzed by one-sample t-test: **p<0.05.
In this study, the (25-35) β-amyloid peptide fragment induced cognitive deficits model in rats was used to investigate the dose-response (0.08, 0.32 or 1.28 mg/kg) effect of FGLs administered intranasally daily for 15 doses from day 7 to day 21 post β-amyloid peptide i.c.v. injection. The social memory performance was evaluated using the SRT, 22 days after the β-amyloid injection. A statistically significant impairment of short-term memory was observed as a consequence of the (25-35) β-amyloid neurotoxicity in the rats receiving the (25-35) β-amyloid fragment plus vehicle.

[2] = tested on: intact adult rats; experiment: Social Recognition Test (SRT), short-term social memory, subcutaneous administration; type: in vivo, rat
Protocol: (§1) FIG. 3. Effects of a single administration of vehicle or of FGLs on short-term social memory as evaluated in the Social Recognition Test (SRT). FGLs (8.0 mg/kg) or vehicle (sterile water, 4.0 ml/kg) was administered s.c. and the rats were tested twice with the initial trial of SRT performed 1 h and 73 h after administration. The juvenile rat was presented twice with an inter-trial interval of 2 hours. In each experimental group data were obtained from 9 to 11 rats. Results are shown as Mean and SEM of recognition ratio (RR). […] Comparisons of RR values to a hypothetical value 0.50 were carried using one-sample t-test. **P<0.01.
as §1, with “4.” for “3.”, “(1.0, 2.0, 4.0 and 8.0” for “(8.0”, “24” for “73”
FIG. 5. Effects of subcutaneous administration of FGLs, FGLL and VEB1 (2 administrations at the stated doses) on short-term social memory as evaluated in the Social Recognition Test (SRT). Results are shown as Mean and SEM of recognition ratio (RR). […] Comparisons of RR values to a hypothetical value 0.50 were carried using one-sample t-test.
The activity of FGLs, administered subcutaneously, in enhancing social memory in intact adult rats was examined in three studies. In both studies the test system was the Social Recognition Test (SRT), which is a reliable test for the evaluation of compounds active on short-term memory (Dantzer et al., 1987). In our studies we used a protocol of SRT were a juvenile rat was presented to the test rat twice, with an inter-trial interval (ITI) of 2 hours between the two tests. […] In the first study the rats received a single subcutaneous dose (8.0 mg/kg) of FGLs and were tested 1 hour and 73 hours after administration.
In the second study the rats received a single subcutaneous dose of 1.0, 2.0, 4.0 or 8.0 mg/kg of FGLs and were tested 1 hour and 24 hours after administration.
In the third study the dose response effects (0.25, 0.80, 2.50 and 8.0 mg/kg) of subcutaneous administration of FGLs were tested. In parallel were also tested FGLL and VEB1, another truncated form of FGLL. The peptides were administered twice, 24 and 5 hours before the first SRT, and the rats were tested 5 hour and 77 hours after the last administration

[3] = Visual appearance of peptide diluted in water; type: physicochemical; details: 100 mg/ml in water, room temperature
Protocol: FIG. 11. Visual appearance of FGLL and FGLs. 100 mg of FGLL and FGLs, respectively were diluted in 1 ml water at room temperature for visual inspection.
FGFL and FGFs were diluted in water at a concentration of 100 mg/ml for visual inspection (FIG. 11). […] In another experiment were 5 mg of FGLL and FGLs respectively diluted in 1 ml water or PBS at room temperature. Light microscopy pictures of the water and PBS solutions of FGLL and FGLs can be seen in FIG. 12. In FIG. 13. is a 90° light-scattering spectra of 100 mg/ml FGFL and FGLs in water showing the difference in intensity between the FGF L and the FGLs, solution.

[4] = s.c., administered twice, 77 hours after the last administration

With “FGLs: two identical 11 amino acid peptides (VAENQQGKSKA), forming a dimer through a linker molecule (iminodiacetic acid); peptide amide (VAENQQGKSKA-NH2; not fully specified; also: dimer of two identical peptides through iminodiacetic acid linker, attachment site not given here)” as the substance, how does the “deficit in social memory performance (SRT) compared with vehicle treated rats” value [1] read?
Its value is “significant (p<0.01) amelioration of the deficit”.

And the “duration of mnemotropic effects after administration” value ([2]; s.c. administration, short-term social memory)?
The value was “at least 72 hours”.

And the “minimum effective dose in SRT” value ([2]; s.c., administered twice (24 and 5 hours before first SRT), 5 hours post administration, intact rats)?
Its value is 0.80 mg/kg and 0.8 mg/kg.

And the “dose with significant social memory enhancing effect in SRT” value [2, 4]?
Its value is 2.50 mg/kg.

What about the “social memory enhancing effect in SRT” value [2, 4] of the same substance?
Its value is “Significant memory enhancing effects”.

And the “memory enhancing effect in SRT (recognition ratio)” value ([2]; single s.c. dose 8.0 mg/kg, tested 1 hour after administration, inter-trial interval 2 hours)?
Its value is “significant memory enhancing effect”.

What about the “memory enhancing effect in SRT (recognition ratio)” value ([2]; single s.c. dose 8.0 mg/kg, tested 73 hours after administration, inter-trial interval 2 hours) of the same substance?
Its value is “tendency to significance (p=0.06)”.

And the “memory enhancing effect in SRT (recognition ratio)” value ([2]; single s.c. dose 2.0, 4.0 and 8.0 mg/kg, 1 hour post administration)?
The value was “significant memory enhancing effect”.

And the “memory enhancing effect in SRT (recognition ratio)” value ([2]; single s.c. dose 4.0 and 8.0 mg/kg, 24 hours after administration)?
Its value is “significant memory enhancing effect”.

And the “visual appearance of solution” value [3]?
The value was “remained clear”.
